According to patent US6255327A, “Diphenyl-substituted heterocycles, processes for preparing them and their use as pharmaceutical compositions” (Boehringer Ingelheim Pharma KG, priority 1998, dated 2001):

What was measured:
[1] = test system: AMPA receptor; test: Inhibition of the cainate-induced signal at the AMPA receptor, electrophysiology on neuronal cells (patch-clamp method); assay type: cell-based; conditions: test concentration of 100 μM
Method: The testing was carried out at a test concentration of 100 μM.

[2] = biological target: "Na^+ channel site 2" binding site; test: Affinity to the "Na^+ channel site 2" binding site; conditions: typically at a test concentration of 10 μM
Method: The testing was typically carried out at a test concentration of 10 μM.

[3] = test system: neurones in mouse brains; conditions: after systemic administration; cited from earlier work

Row | Ki [2] [nM] | SMILES | AMPA Inh. [%] (inhibition of the cainate-induced signal at the AMPA receptor) [1] | destruction of neurones in mouse brains (in words) [3]
1 | 390 | COc1ccccc1-c1cnn(-c2ccccc2)c1 [Example 17, 4-(2-methoxyphenyl)-1-phenyl-pyrazole] | 53 | 
2 | 3700 | CN(C)CCOc1ccccc1-n1cnc(-c2ccccc2)n1 [Example 3, 1-{2-[2(N,N-Dimethylamino)ethyl]oxy-phenyl}-3-phenyl-1,2,4-triazole] | 74 | 
3 | 1300 | CN(C)CCOc1ccccc1-c1cn(-c2ccccc2)c(=O)[nH]1 [Example 22, 4-{2-[2(N,N-dimethylamino)ethyl]oxy-phenyl}-1-phenyl-1,3-dihydro-imidazol-2-one] |  | 
4 | 1800 | CN(C)CCOc1ccccc1-c1c[nH]c(-c2ccccc2)n1 [Example 9, 4-{2-[2(N,N-dimethylamino)ethyl]oxy-phenyl}-2-phenyl-imidazole] |  | 
5 | 550 | CN(C)CCOc1ccccc1N1C(=O)NC(c2ccccc2)C1=O (stereo not shown) [Example 19, 3-{2-[2(N,N-dimethylamino)ethyl]oxy-phenyl}-5-phenyl-imidazolidin-2,4-dione] |  | 
6 | 700 | CN(C)CCOc1ccccc1-c1ncn(-c2ccccc2)n1 [Example 5, 3-{2-[2(N,N-Dimethylamino)ethyl]oxy-phenyl}-1-phenyl-1,2,4-triazole] | 76 | 
7 | 990 | CN(C)CCOc1ccccc1-c1nn(-c2ccccc2)c(=O)o1 [Example 12, 5-{2-[2(N,N-dimethylamino)ethyl]oxy-phenyl}-3-phenyl-1,3,4-oxadiazol-2-one] |  | 
8 | 360 | CN(C)CCOc1ccccc1-n1cc(-c2ccccc2)[nH]c1=O [Example 20, 1-{2-[2(N,N-dimethylamino)ethyl]oxy-phenyl}-4-phenyl-1,3-dihydro-imidazole-2-one] |  | 
9 | 990 | CN(C)CCOc1ccccc1-c1cnc(-c2ccccc2)o1 [Example 10, 5-{2-[2(N,N-dimethylamino)ethyl]oxy-phenyl}-2-phenyl-1,3-oxazole] | 98 | 

Second part, the compound before the results:

Row | SMILES | Ki [2] [nM] | AMPA Inh. [%] (inhibition of the cainate-induced signal at the AMPA receptor) [1] | destruction of neurones in mouse brains (in words) [3]
10 | CN(C)CCOc1ccccc1-c1nc(-c2ccccc2)nn1C [Example 23, 5-{2-[2(N,N-dimethylamino)-ethyl]oxy-phenyl}-1-methyl-3-phenyl-1,2,4-triazole] | 1400 |  | 
11 | CN(C)CCOc1ccccc1C1NC(=O)N(c2ccccc2)C1=O (stereo not shown) [Example 21, 5-{2-[2(N,N-dimethylamino)ethyl]oxy-phenyl}-3-phenyl-imidazolidin-2,4-dione] | 710 |  | 
12 | c1ccc(-c2ncn(-c3ccccc3)n2)cc1 [Example 1, 1,3-Diphenyl-1,2,4-triazole] |  | 56 | 
13 | CN(C)CCOc1ccccc1-c1ccc(-c2ccccc2)[nH]1 [Example 24, 2-{2-[2(N,N-dimethylamino)-ethyl]oxy-phenyl}-5-phenyl-pyrrole] | 460 |  | 
14 | CN(C)CCOc1ccccc1-c1coc(-c2ccccc2)n1 [Example 8, 4-{2-[2(N,N-dimethylamino)ethyl]oxy-phenyl}-2-phenyl-1,3-oxazole] | 4600 | 77 | 
15 | COc1ccccc1-c1c[nH]c(-c2ccccc2)c1 [Example 13, 3-(2-methoxyphenyl)-5-phenyl-1H-pyrrole] | 1100 |  | 
16 | N[C@@H](CCC(=O)O)C(=O)O [glutamate] |  |  | neurones are destroyed in mouse brains
17 | CN(C)CCOc1ccccc1-c1nc(-c2ccccc2)c[nH]1 [Example 25, 2-{2-[2(N,N-dimethylamino)-ethyl]-oxy-phenyl}-4-phenyl-imidazole] | 1300 |  | 
18 | CN(C)CCOc1ccccc1-c1n[nH]c(-c2ccccc2)n1 [Example 7, 3-{2-[2(N,N-Dimethylamino)ethyl]oxy-phenyl}-5-phenyl-1,2,4-triazole] | 1200 | 39 | 
19 | COc1ccccc1-n1cnc(-c2ccccc2)n1 [Example 2, 1-(2-methoxyphenyl)-3-phenyl-1,2,4-triazole] |  | 96 | 
